From patent US11911477B2, “Use of fructose in preparing drug for treating ischemic injury” (Beihang University, priority 2021, dated 2024)

Columns and labels:
[1] = test system: OGD-injured neurons; test: CellTiter-Glo Luminescent cell viability of OGD-injured neurons; settings: OGD 1.5 h, 2 mM, after 24 h, FIG. 13
Method: The CellTiter-Glo® Luminescent cell viability test kit was used: the neuronal cells were cultured using a 96-well plate, and OGD treatment was conducted on neurons for 1.5 h on a 7th day; fructose, fructose-1,6-bisphosphate and glycerol fructose were added each at a concentration of 2 mM; after 24 h, the cell viability was detected by the kit.

[2] = test system: DIV7 neurons; test: CellTiter-Glo Luminescent cell viability of DIV7 neurons; type: cell-based; settings: for viability of DIV7 neurons: 0, 1, 2, 4, 6, 8 and 16 mM, each compared with the 0 mM group, FIG. 12
Text: Effects of different concentrations of fructose on the viability of DIV7 neurons were studied using a CellTiter-Glo® Luminescent cell viability test kit, and an added concentration of the fructose was explored in the cell system.

[3] = test system: OGD-injured neurons; test: Survival rate of OGD-treated neurons by MAP2 and DAPI immunofluorescence staining; settings: OGD 1.5 h, 2 mM, after 24 h, FIG. 14
Method: Immunofluorescence staining method: the neurons were cultured for 7 d, and subjected to OGD treatment for 1.5 h; fructose, fructose-1,6-bisphosphate and glycerol fructose were added each at a concentration of 2 mM; after 24 h, MAP2 and DAPI staining were conducted.

[4] = test system: DIV7 neurons; test: IPC with fructose pathway inhibitor sorbinil: ATP and NADPH level of DIV7 neurons; type: cell-based, mice; settings: fructose pathway inhibited by sorbinil, cellular level
Method: Secondly, to further verify effects of the fructose pathway in IPC ischemia protection, a fructose pathway inhibitor sorbinil was added at the cellular level. […] (4) Content of ATP and NADPH: cortical neurons were isolated from P0-P1 suckling mice, the neurons were inoculated on a 7th day by adding a lentiviral transfection protein vector that specifically detects ATP and a lentiviral transfection protein vector iNap that specifically detects NADPH; the neurons were fixated with 4% PFA, subjected to immunofluorescence staining, and data was collected through a confocal microscope, the fluorescence intensity of virus vector protein was counted using ImageJ, and the contents of ATP and NADPH were calculated.

[5] = test system: OGD-injured neurons; test: Survival of OGD-injured neurons (TUNEL and MAP2 staining), fructose at different stages; type: cell-based; settings: 24 h reperfusion
Method: (1) Cell model: the cerebral ischemic stroke was simulated using an OGD model, DIV7 primary neurons were treated with a glucose-free medium in a hypoxic box (1% O2+5% CO2+94% N2), oxygen glucose deprivation was conducted at 37° C. for 1.5 h, and the primary neurons was cultured in a normal medium for 24 h under normoxic conditions. (3) Survival of neurons: a survival state of neurons was counted by TUNEL staining and immunofluorescence staining; the neuronal cells were subjected to growing on glass coverslips, fixated with 4% PFA for 10 min, washed with PBS, and subjected to incubation in a blocking buffer for 1 h, and a MAP2 primary antibody working solution was added to conduct culture overnight at 4° C.; the cells were washed with PBS, a MAP2 secondary antibody working solution was added to incubate at room temperature for 1 h; the cells were washed with PBS, subjected to TUNEL staining, and a mounting agent containing 4′,6-diamidino-2-phenylindole (DAPI) was added for mounting. Data was collected through a focusing microscope and the number of cell deaths was counted using ImageJ. (1) Neuron survival: DIV7 neurons were divided into four groups: a control group, an OGD group (for OGD treatment), an OGD+Fru(per) group (fructose treatment during OGD treatment), and an OGD+Fru(post) group (fructose treatment in a reperfusion stage after OGD treatment). […]

[6] = test system: OGD-injured neurons; test: ATP and NADPH content of OGD-injured neurons (lentiviral sensors), fructose at different stages; type: cell-based, mice
Text: (4) Content of ATP and NADPH: cortical neurons were isolated from P0-P1 suckling mice, the neurons were inoculated on a 7th day by adding a lentiviral transfection protein vector that specifically detects ATP and a lentiviral transfection protein vector iNap that specifically detects NADPH; the neurons were fixated with 4% PFA, subjected to immunofluorescence staining, and data was collected through a confocal microscope, the fluorescence intensity of virus vector protein was counted using ImageJ, and the contents of ATP and NADPH were calculated. By detecting an expression level of the lentiviral transfection protein vector that specifically detects ATP and the lentiviral transfection protein vector iNap that specifically detects NADPH in the primary neuron culture system, the levels are characterized for neuronal energy metabolism and redox metabolism. (2) Content of ATP and NADPH: cortical neurons were isolated from P0-P1 suckling mice, the neurons were inoculated on a 7th day by adding a lentiviral transfection protein vector that specifically detects ATP and a lentiviral transfection protein vector iNap that specifically detects NADPH; the neurons were divided into four groups: a control group, an OGD group (for OGD treatment), an OGD+Fru(per) group (fructose treatment during OGD treatment), and an OGD+Fru(post) group (fructose treatment in a reperfusion stage after OGD treatment). Reperfusion was conducted 24 h after OGD; the neurons were fixated with 4% PFA, subjected to MAP2 immunofluorescence staining to observe the content of ATP and NADPH of the neurons.

[7] = test system: MCAO rats; test: MCAO rat model: Longa behavioral score and TTC cerebral infarct area; type: in vivo; settings: for area of cerebral infarction (TTC staining) / neurobehavioral characteristics (Longa scoring): 24 h
[8] = fructose added in the OGD phase
[9] = fructose added in the reperfusion phase
[10] = intraperitoneal injection after suture plug removal (MCAO+Fru-2)
[11] = tail vein injection after suture plug removal (MCAO+Fru-1)

SMILES	cell viability of OGD-injured neurons [1]	viability of DIV7 neurons [2]	survival rate of neurons after OGD [3]	content of ATP after IPC ([4]; FIGS. 4A-B)	content of NADPH after IPC ([4]; FIGS. 5A-B)	neuronal death rate caused by OGD ([5]; fructose added in the OGD phase (OGD+Fru(per)))	neuronal death rate caused by OGD ([5]; fructose added in the reperfusion phase (OGD+Fru(post)))	ATP production of neurons [6, 8]	NADPH production of neurons [6, 8]	ATP production of neurons [6, 9]	NADPH production of neurons [6, 9]	concentration with better effect of improving the activity of DIV7 neuronal cells ([2]; different concentrations of fructose, FIG. 11)	comparison of routes of administration (tail vein vs intraperitoneal) ([7]; MCAO rats, neurobehavior and infarct area)	area of cerebral infarction (TTC staining) [7, 10]	neurobehavioral characteristics (Longa scoring) [7, 10]	area of cerebral infarction (TTC staining) [7, 11]	neurobehavioral characteristics (Longa scoring) [7, 11]
O=C(COP(=O)(O)O)[C@@H](O)[C@H](O)[C@H](O)COP(=O)(O)O [reference compound]	have a tendency to increase the viability of OGD-injured neurons	can improve neuron viability	can improve the survival rate of the neurons														
O=C1NC(=O)[C@@]2(CCOc3ccc(F)cc32)N1 [sorbinil]				the IPC no longer increases the contents of ATP and NADPH	the IPC no longer increases the contents of ATP and NADPH												
O=C(CO)[C@@H](O)[C@H](O)[C@H](O)CO [fructose]	can significantly increase the cell viability of OGD-injured neurons	can significantly enhance viability of the neurons				can reduce the neuronal death rate caused by OGD	can reduce the neuronal death rate caused by OGD	can enhance the decrease in ATP and NADPH production of neurons caused by OGD	can enhance the decrease in ATP and NADPH production of neurons caused by OGD	can enhance the decrease in ATP and NADPH production of neurons caused by OGD	can enhance the decrease in ATP and NADPH production of neurons caused by OGD	1 to 6 mM	tail vein injection is generally better than the intraperitoneal injection	reduce the area of cerebral infarction	can improve the neurobehavioral characteristics of MCAO rats	reduce the area of cerebral infarction	can improve the neurobehavioral characteristics of MCAO rats
